The source of these data is ChEMBL document CHEMBL6103546, “TRPM8 and TRPA1 ideal targets for treating cold-induced pain” (Eur J Med Chem, 2025).

Test [1] concerns the target T1, Transient receptor potential cation channel subfamily A member 1 (Homo sapiens, UniProt O75762). Put plainly: Antagonist activity at TRPA1 (unknown origin) transfected in HEK293F cells assessed as reduction in intracellular Ca2+ by fluorescence based assay. The class given is cell-based.
The target in test [2] is T1, Transient receptor potential cation channel subfamily A member 1. Put plainly: […] at human TRPA1 expressed in HEK293T cells assessed as inhibition of AITC-induced current by whole cell patch clamp analysis. In kind it is cell-based. A general note: The patch-clamp technique gives a direct electrical read-out from membranes.
Test [3] has the same target. Put plainly: Antagonist activity at TRPA1 (unknown origin) expressed in HEK293 cells assessed as inhibition of AITC-induced intracellular Ca2+ flux by fluorescence dye based assay. In kind it is cell-based. For orientation: Calcium flux is commonly read through the fluorescence of an indicator in the cells.
Test [4] has the same target. Put plainly: Antagonist activity at human TRPA1 expressed in CHO cells assessed as inhibition of AITC-induced intracellular Ca2+ flux by fluorescence dye based assay. The class given is cell-based.
Test [5] shares this target. Put plainly: Antagonist activity at recombinant TRPA1 (unknown origin) expressed in T-REx-293 cells assessed as inhibition of AITC-induced intracellular Ca2+ flux by patch clamp assay. The class given is cell-based.
For test [6], the target named is T2, Transient receptor potential cation channel subfamily M member 8 (Homo sapiens, UniProt Q7Z2W7). The test can be described thus: Antagonist activity at TRPM8 (unknown origin).
The target of test [7] is T2, Transient receptor potential cation channel subfamily M member 8. The test can be described thus: Antagonist activity at human recombinant TRPM8 stably transfected in HEK293 cells assessed as inhibition of intracellular Ca2+ flux incubated for 60 mins by Fluo-4 dye based fluorescence assay. The class given is cell-based.
Test [8] shares this target. Put plainly: Antagonist activity at human TRPM8 expressed in HEK293 cells. The class given is cell-based.
The target in test [9] is Transient receptor potential cation channel subfamily M member 8 (Rattus norvegicus, UniProt Q8R455). Put plainly: Antagonist activity at rat TRPM8 transfected in HEK293T cells assessed as reduction in intracellular Ca2+ level Fluo-4 dye based fluorescence assay. In kind it is cell-based.
Test [10] concerns the target T2, Transient receptor potential cation channel subfamily M member 8. The test can be described thus: Antagonist activity at human TRPM8 transfected in HEK293T cells assessed as inhibition of intracellular Ca2+ level by Fluo-4 dye based fluorescence assay. The class given is cell-based.
Test [11] has the same target. Put plainly: Agonist activity at TRPM8 (unknown origin).
Test [12] has the same target. The test can be described thus: Antagonist activity at TRPM8 (unknown origin) in HEK293T cells. The class given is cell-based.

T1 sequence (O75762 whole entry): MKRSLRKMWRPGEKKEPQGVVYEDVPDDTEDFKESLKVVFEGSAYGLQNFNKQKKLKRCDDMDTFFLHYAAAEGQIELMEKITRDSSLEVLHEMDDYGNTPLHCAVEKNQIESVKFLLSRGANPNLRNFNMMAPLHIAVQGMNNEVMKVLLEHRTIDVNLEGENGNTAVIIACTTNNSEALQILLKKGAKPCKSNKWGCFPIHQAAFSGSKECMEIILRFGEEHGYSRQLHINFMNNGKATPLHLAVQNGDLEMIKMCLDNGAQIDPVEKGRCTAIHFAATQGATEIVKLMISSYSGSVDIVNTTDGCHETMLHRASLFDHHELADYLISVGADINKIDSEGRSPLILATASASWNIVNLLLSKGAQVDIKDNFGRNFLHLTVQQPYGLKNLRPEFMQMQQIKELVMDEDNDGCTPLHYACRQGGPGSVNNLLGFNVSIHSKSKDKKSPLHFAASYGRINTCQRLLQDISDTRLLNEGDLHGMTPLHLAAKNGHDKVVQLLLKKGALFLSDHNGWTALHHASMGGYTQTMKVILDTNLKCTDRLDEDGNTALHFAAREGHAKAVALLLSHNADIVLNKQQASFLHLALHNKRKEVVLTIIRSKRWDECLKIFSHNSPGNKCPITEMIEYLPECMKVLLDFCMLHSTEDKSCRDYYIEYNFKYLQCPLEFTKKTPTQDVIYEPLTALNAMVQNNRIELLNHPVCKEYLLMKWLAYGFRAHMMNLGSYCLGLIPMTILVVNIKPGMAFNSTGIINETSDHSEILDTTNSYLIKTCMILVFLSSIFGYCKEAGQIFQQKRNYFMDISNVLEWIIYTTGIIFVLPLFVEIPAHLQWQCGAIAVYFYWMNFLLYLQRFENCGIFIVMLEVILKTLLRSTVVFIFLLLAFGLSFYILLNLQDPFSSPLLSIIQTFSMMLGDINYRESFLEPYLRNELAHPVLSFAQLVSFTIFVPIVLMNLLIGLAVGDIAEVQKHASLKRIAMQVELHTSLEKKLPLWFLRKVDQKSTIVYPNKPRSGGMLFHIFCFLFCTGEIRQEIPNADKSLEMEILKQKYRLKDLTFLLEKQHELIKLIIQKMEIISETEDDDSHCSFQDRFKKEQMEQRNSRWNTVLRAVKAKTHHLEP
T2 sequence (Q7Z2W7 whole entry): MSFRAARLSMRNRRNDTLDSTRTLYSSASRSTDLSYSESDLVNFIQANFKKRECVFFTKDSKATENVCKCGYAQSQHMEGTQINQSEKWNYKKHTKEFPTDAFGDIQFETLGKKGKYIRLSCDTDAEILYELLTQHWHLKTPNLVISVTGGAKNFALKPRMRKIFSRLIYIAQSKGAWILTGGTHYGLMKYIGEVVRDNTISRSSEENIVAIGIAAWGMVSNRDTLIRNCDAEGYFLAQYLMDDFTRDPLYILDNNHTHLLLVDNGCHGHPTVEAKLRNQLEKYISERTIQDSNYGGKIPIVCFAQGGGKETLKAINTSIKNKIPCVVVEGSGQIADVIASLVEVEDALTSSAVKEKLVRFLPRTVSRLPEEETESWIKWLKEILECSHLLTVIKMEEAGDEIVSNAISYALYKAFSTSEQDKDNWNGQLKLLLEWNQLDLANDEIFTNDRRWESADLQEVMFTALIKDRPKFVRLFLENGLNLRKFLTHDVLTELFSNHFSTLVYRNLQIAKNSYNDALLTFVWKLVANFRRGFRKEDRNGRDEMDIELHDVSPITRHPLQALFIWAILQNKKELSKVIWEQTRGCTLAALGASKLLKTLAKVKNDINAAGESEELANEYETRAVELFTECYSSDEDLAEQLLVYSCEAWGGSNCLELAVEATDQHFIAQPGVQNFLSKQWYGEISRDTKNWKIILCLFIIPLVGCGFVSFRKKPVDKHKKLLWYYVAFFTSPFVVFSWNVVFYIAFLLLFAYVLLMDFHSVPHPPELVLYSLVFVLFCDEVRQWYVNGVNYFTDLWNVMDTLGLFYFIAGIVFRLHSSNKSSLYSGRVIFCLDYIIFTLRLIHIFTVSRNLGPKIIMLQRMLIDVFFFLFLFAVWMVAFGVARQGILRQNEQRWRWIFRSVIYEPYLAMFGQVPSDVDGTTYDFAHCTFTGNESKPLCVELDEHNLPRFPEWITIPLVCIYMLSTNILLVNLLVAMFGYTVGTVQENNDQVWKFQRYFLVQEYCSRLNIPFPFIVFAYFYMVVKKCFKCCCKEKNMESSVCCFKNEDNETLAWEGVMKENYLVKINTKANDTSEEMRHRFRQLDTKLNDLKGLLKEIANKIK
Sequence of Transient receptor potential cation channel subfamily M member 8 (Rattus norvegicus, UniProt Q8R455) (Q8R455 whole entry): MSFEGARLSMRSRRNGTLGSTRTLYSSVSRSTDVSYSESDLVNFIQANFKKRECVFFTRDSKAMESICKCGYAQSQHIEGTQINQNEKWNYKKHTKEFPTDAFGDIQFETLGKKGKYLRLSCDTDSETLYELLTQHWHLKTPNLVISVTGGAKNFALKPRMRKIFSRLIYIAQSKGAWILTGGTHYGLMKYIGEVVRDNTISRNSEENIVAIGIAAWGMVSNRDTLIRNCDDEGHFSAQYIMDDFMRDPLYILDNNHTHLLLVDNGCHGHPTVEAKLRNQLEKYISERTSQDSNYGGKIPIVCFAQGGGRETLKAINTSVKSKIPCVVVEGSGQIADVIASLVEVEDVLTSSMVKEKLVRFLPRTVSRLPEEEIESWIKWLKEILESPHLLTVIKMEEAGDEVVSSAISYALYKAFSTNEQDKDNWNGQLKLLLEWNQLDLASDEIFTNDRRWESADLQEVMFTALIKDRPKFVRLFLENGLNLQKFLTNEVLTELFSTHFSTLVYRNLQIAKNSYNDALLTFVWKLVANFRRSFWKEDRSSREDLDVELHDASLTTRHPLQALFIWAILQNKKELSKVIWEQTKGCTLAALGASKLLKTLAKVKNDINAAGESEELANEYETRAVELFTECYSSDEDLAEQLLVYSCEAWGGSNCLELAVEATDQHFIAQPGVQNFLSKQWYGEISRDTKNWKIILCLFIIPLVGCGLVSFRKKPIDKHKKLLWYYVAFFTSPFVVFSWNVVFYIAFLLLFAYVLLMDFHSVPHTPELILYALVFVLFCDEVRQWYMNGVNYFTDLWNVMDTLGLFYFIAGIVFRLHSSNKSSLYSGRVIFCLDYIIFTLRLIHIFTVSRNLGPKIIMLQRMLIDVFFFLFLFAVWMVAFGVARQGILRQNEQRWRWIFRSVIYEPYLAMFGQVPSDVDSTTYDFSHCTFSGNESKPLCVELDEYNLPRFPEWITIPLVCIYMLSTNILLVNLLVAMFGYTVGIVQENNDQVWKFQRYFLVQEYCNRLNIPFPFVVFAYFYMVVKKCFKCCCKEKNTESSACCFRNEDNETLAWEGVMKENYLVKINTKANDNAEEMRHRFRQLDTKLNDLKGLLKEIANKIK

As usually defined, the EC50 is the concentration at which the effect is half-maximal. Regarding `COc1ccc(OC)c(NC(=O)c2nnn(Cc3ccc(Br)cc3F)c2N)c1`, in test [1], the EC50 stood at 45 nM.

In the case of `C[n+]1cc2c3c(ccc2c2ccc4cc5c(cc4c21)OCO5)OCO3`, the half-maximal effective concentration (EC50) in test [2] was found to be 40 nM.

With `C[C@@H](N)[C@@H](O)CCCCCCCCCCCCCCCCCCCCCCCC[C@H](O)[C@@H](C)N`, in test [3], the half-maximal effective concentration (EC50) was found to be 2600 nM.

Usually IC50 stands for the concentration needed to halve the response being measured. Take `C[C@H]1[C@H](F)C[C@@H](C(=O)NCc2cc(-c3cnc(C(F)(F)F)nc3)ncc2C(F)(F)F)N1S(=O)(=O)c1ccc(F)cc1`: the IC50 in test [4] worked out at 1.7 nM.

Consider `CCN(c1cccc(C)c1)S(=O)(=O)c1nnc(NC(=O)c2ccccc2)s1`, for which, in test [5], the half-inhibitory concentration (IC50) amounted to 130 nM.

In the case of `C[C@@H]1C(=O)N(C[C@@H](Cc2ccccc2)N(Cc2ccccc2)Cc2ccccc2)[C@]1(Cc1ccccc1)C(=O)OCc1ccccc1`, the IC50 in test [6] and in test [7] was 300 nM in each case.

On to `C[C@H]1C(=O)N(C[C@@H](Cc2ccccc2)N(Cc2ccccc2)Cc2ccccc2)[C@@]1(Cc1ccccc1)C(=O)OCc1ccccc1`, for which the figures for the IC50 in test [8], in test [6] and in test [7] were 50 nM, 20 nM and 20 nM, respectively.

`C[C@H]1C(=O)N(C[C@H](Cc2ccccc2)N(Cc2ccccc2)Cc2ccccc2)[C@@]1(Cc1ccccc1)C(=O)OCc1ccccc1` came in with an IC50 in test [6] of 700 nM.

Take `O=C(N[C@H](Cn1nccn1)C(F)(F)CO)c1cccc(F)c1-c1cc(-c2ccc(F)cc2)[nH]n1`: the half-maximal inhibitory concentration (IC50) was 22.4 nM in [9] and 25.3 nM in test [10].

As to `C[C@@H]1C(=O)N(C[C@H](Cc2ccccc2)N(Cc2ccccc2)Cc2ccccc2)[C@]1(Cc1ccccc1)C(=O)OCc1ccccc1`, the midpoint of inhibition in test [6], the IC50, lay at 3100 nM.

On to `O=C1NC(c2cccc([N+](=O)[O-])c2)=CCN1c1ccccc1O` [ICILLIN], for which, in test [11], the half-maximal effective concentration (EC50) came out at 5 nM.

As for `c1cc2c(cc1[C@H]1OC[C@H]3[C@@H]1CO[C@@H]3c1ccc3c(c1)OCO3)OCO2` [SESAMIN], the IC50 in test [12] came out at 9780 nM.
